# According to patent US10450337B2, “Pharmaceutical compounds” (Rafael Pharmaceuticals, Inc., priority 2014, dated 2019):
# How the values were obtained:
# Type in all cases: cell-based
# [1] = test system: H460 non small lung carcinoma cells; assay: Cell kill screening, CellTiter Glo viability assay, H460; conditions: Homo sapiens, 24 hours treatment, 0.5% serum and 0.05% DMSO, relative to untreated control; for viability at 50 µM: NCI-H460, 50 μM, read-out: % avg live cells @ 50 μM (% Viable Cells Remaining); for viability at 100 µM: NCI-H460, 100 μM, read-out: % avg live cells @ 100 μM (% Viable Cells Remaining)
# From the text: (§1) The objective of this investigation was to assess the in vitro cell killing activities of analogs of lipoic acid in BXPC3 human pancreatic, 11460 non small lung carcinoma, and SF539 human gliosarcoma cancer cells.
# (§2) Three human tumor cell types, BXPC3 human pancreatic cancer, H460 non small lung carcinoma, and SF539 human gliosarcoma, were used in this investigation. The BXPC3 and H460 cells were originally obtained from American Type Cell Culture (ATCC). The SF539 cells were originally obtained from the NCI AIDS and Cancer Specimen Bank (ACSB). All tumor cells were maintained at 37° C. in a humidified 5% CO2 atmosphere in T75 tissue culture flasks containing 20 mL of Roswell Park Memorial Institute (RPMI) 1640 containing 2 mM L-glutamine, 10% FBS and 1% penicillin and streptomycin (100 IU/mL penicillin and 100 μg/mL streptomycin). The tumor cells were split at a ratio of 1:5 every 4-5 days by trypsinization and resuspended in fresh medium in a new flask. Cells were harvested for experiments at 70-90% confluency.
# (§3) Stock solutions of each analog were prepared at a concentration of 200 and 100 mM in DMSO. Five μL of this solution was diluted in 10.0 mL of 0.5% serum containing RPMI media to give the desired 100 μM and 50 μM solutions in 0.05% DMSO.
# (§4) The cancer cells were seeded at 4000 cells/well for H460 cells and 6000 cells/well for BXPC3 and SF 539 cells and incubated 24 hours. The killing activity of analogs was assayed at 50 μM and 100 μM concentrations. The tumor cells were treated for 24 hours with the test article, and after 24 hours of treatment the number of viable tumor cells was determined using the CTG assay.
# (§5) The number of cells targeted for the study is 4×10^3 per well for H460 cells and 6×10^3 per well for BXPC3 and SF539 cells in 100 μL of medium. The actual number of cells were counted and seeded in the wells of a 96 well-plate. The cells were incubated for approximately 24 hours before addition of test article.
# (§6) The media in the plate was removed by aspiration, and 100 μL of the test article at a final concentration of 50 μM or 100 μM was added to the cells. After exposure to the test articles for 24 hours, the number of viable cells in each well was determined and the percent of viable cells relative to control (in the absence of test article) were calculated. Additionally, a set of wells was treated with cell culture medium in the absence of cells to obtain a value for background luminescence. A separate set of cells was seeded at the same time in a clear 96-well plate and observed under the microscope at 24 hours, following addition of the test article to estimate the amount of cells present after treatment.
# (§7) The number of viable cells was determined by using the CTG assay. Specifically, reagents were mixed and allowed to come to room temperature according to instructions from Promega, Inc. (Madison, Wis.). Cell plates were removed from the cell culture incubator and left on the bench for thirty minutes until they reached room temperature. 100 μL per well of CTG reagent was added with the 12-channel Eppendorf pipettor. The cells were lysed by shaking the plate for two minutes in a shaker. The cells were kept in room temperature for ten minutes to stabilize the luminescent signal. The luminescence was measured using the FLUOstar OPTIMA plate reader (BMG Labtech, Inc., Durham, N.C.).
# (§8) Data from luminescence readings was copied onto EXCEL spreadsheets, and cell growth relative to untreated cells was calculated, using the following equation: […]
# [2] = test system: BXPC3 human pancreatic cancer cells; assay: Cell kill screening, CellTiter Glo viability assay, BXPC3; conditions: 24 hours treatment, 0.5% serum and 0.05% DMSO, relative to untreated control; for viability at 50 µM: BXPC-3, 50 μM, read-out: % avg live cells @ 50 μM (% Viable Cells Remaining); for viability at 100 µM: BXPC-3, 100 μM, read-out: % avg live cells @ 100 μM (% Viable Cells Remaining)
# From the text: as §1, §2, §3, §4, §5, §6, §7, §8
# [3] = test system: SF539 human gliosarcoma cells; assay: Cell kill screening, CellTiter Glo viability assay, SF539; conditions: 24 hours treatment, 0.5% serum and 0.05% DMSO, relative to untreated control; for viability at 50 µM: SF-539, 50 μM, read-out: % avg live cells @ 50 μM (% Viable Cells Remaining); for viability at 100 µM: SF-539, 100 μM, read-out: % avg live cells @ 100 μM (% Viable Cells Remaining)
# From the text: as §1, §2, §3, §4, §5, §6, §7, §8
SMILES,viability at 50 µM [1] [%],viability at 100 µM [1] [%],viability at 50 µM [2] [%],viability at 100 µM [2] [%],viability at 50 µM [3] [%],viability at 100 µM [3] [%]
O=CCCCCC(CCSCc1ccccc1)SCc1ccccc1 (stereo not shown) [A],44.9,29.9,37.6,26.3,29.4,28.1
O=C(O)CCCCCCC(CCSCc1ccccc1)SCc1ccccc1 (stereo not shown) [C],3,15,2,6,5,20
O=C(O)/C=C/CCCCC(CCSCc1ccccc1)SCc1ccccc1 (stereo not shown) [D],15.4,0,–,–,9.9,0
O=C(O)CCCCC(CCNC(=O)OCc1ccccc1)NC(=O)OCc1ccccc1 (stereo not shown) [G],89.1,87,82,72.6,97.3,79.6
O=C(CCCCC(CCSCc1ccccc1)SCc1ccccc1)OCc1ccccc1 (stereo not shown) [H],110,101,92,84,97,95
NC(=O)CCCCC(CCSCc1ccccc1)SCc1ccccc1 (stereo not shown) [I],1,0,1,0,1,1
O=C(CCCCC(CCSCc1ccccc1)SCc1ccccc1)N1CCOCC1 (stereo not shown) [J],37.2,15.8,8.2,4.6,38.2,15.9
O=C(CCCCC(CCSCc1ccccc1)SCc1ccccc1)NCCN1CCOCC1 (stereo not shown) [K],0,0,1,0,0,0
CCN(CC)C(=O)CCCCC(CCSCc1ccccc1)SCc1ccccc1 (stereo not shown) [L],58,18,28,14,58,32
CCN(CC)CCNC(=O)CCCCC(CCSCc1ccccc1)SCc1ccccc1 (stereo not shown) [M],20.5,8.5,10.8,1.4,3.1,1.9
O=C(CCCCC(CCSCc1ccccc1)SCc1ccccc1)NCCS(=O)(=O)O (stereo not shown) [N],119,89,126,95,104,75
